Source: patent US20120315290A1, “INHIBITORS OF LL-37 MEDIATED IMMUNE REACTIVITY TO SELF NUCLEIC ACIDS” (BOARD OF REGENTS, THE UNIVERSITY OF TEXAS SYSTEM, priority 2006, published 2012)
“Also recorded” adds a separate entry of the source.

Tests used:
[1] = tested on: Thy1.2 positive CD4 T cells; assay: Adjuvant activity: expansion of transferred HNT-TCR Tg CD4+ T cells in draining LN; format: in vivo, BALB/c Thy1.1 mice; conditions: 35 μg s.c. with A20 lysate plus HNT peptide
Procedure: CD4+ T cells were purified from spleen and LN of HNT-TCR Tg mice (Thy 1.2), labeled with CFSE, and adoptively transferred (1×10^6) into BALB/c Thy1.1 mice. Next day, mice were immunized s.c. with (a) 5×10 ^6 A20 lysate plus HNT peptide and CpG-2216 ([…]); (b) A20 lysate plus HNT peptide and LL-37 ([…]); (c) A20F lysate plus HNT peptide; or (d) left untreated. Four days after immunization draining LN were harvested and Thy 1.2 positive CD4 T cells were measured by flow cytometry.
In another set of experiments, CD4+ T cells were purified from spleen and LN of HNT-TCR Tg mice (Thy 1.2), labeled with CFSE, and adoptively transferred (1×10^6) into BALB/c Thy1.1 mice. Next day, mice were immunized subcutaneously with 5×10^6 A20 lysate plus HNT peptide and CpG-2216 (35 μg), A20 lysate plus HNT peptide and LL-37 (35 μg), A20F lysate plus HNT peptide, or left untreated. Four days after immunization draining LN were harvested and Thy1.2 positive CD4 T cells were measured by flow cytometry.

B16 tumors = assay: Intratumoral or intramuscular injection, cytokine mRNA by real-time PCR; format: in vivo, C57BL/6 mice
Procedure: […] of LL-37, CpG-A or PBS alone was injected into B16 tumors grown for 7 days in Flt-L treated mice. Tumors were harvested after 6, 24, 48 and 72 h, total RNA was extracted and expression of indicated cytokines was measured by real-time PGR. Data represent expression relative to GAPDH RNA. Some mice were injected with […] of LL-37 for 3 times (t0, t24 and t48) and tumor was harvested at 72 h for RNA expression analysis.
LL-37, CpG, or saline (PBS) was injected into B16 tumors grown for 7 days in Flt-L treated mice. Tumors were harvested after 6, 24, 48 and 72 h, total RNA was extracted and expression of indicated cytokines was measured by real-time PGR. Data represent expression relative to GAPDH RNA. Data is representative of 5 mice.
[…] of LL-37 were injected into 7d-established B16 skin tumors and muscle tissue of the same mice. After 6 h tumor and muscle tissue were collected for RT-PCR analysis of IFN-a2 mRNA expression. Data represent expression relative to GAPDH RNA
In another set of experiments, 100 μg of LL-37, CpG-A or PBS alone was injected into B16 tumors grown for 7 days in Flt-L treated mice. Tumors were harvested after 6, 24, 48 and 72 h, total RNA was extracted and expression of indicated cytokines was measured by real-time PCR. […] Some mice were injected with 100 μg of LL-37 for 3 times (t0, t24 and t48) and tumor was harvested at 72 h or RNA expression analysis.
Intratumoral injection of LL-37 into native unmodified B16 melanoma induces potent type I IFN expression. 3×10^5 native B16 melanoma cells were inoculated into C57BL/6 mice. After 7 days, tumors were injected with 100 μg of LL-37, 40 μg CpG-2216 (CpG-A), or saline (PBS). Because LL-37-DNA binding (which will occur in the tumor) is optimal at a 3:1-5:1 ratio, we injected approximately 3 times more LL-37 than CpG-DNA. Tumors were harvested at 6 h, 24 h, 48 h, and 72 h after injection and total RNA was isolated and processed. Expression of IFN-α2 mRNA was measured by real-time PCR and normalized for expression of GAPDH mRNA.
LL-37 can induce type I IFN expression when injected into tumors but not into healthy tissue. Because LL-37 requires the presence of self-DNA released by dying cells to induce pDC activation to produce type I IFN, we next asked whether LL-37 could selectively induce type I IFN expression in tumors (containing a high degree of cells death) and not in healthy tissue. To address this question we injected LL-37 (100 μg) into subcutaneously implanted B16 tumors as well as healthy muscle tissue. 6 h after injection, tissues were collected and IFN-α2 mRNA expression was measured by real-time PCR, as described in C12.

B16 tumor = assay: Intratumoral injection into established B16 melanoma, tumor size; format: in vivo, C57BL/6 mice
Procedure: Mice bearing a 7-d subcutaneous B16 melanoma were injected with […] of LL-37 once (single), or repeatedly for 3 days (3×). Control injections were done with PBS. Tumor size was monitored by caliper every second day. Data represent mean of 4 mice per group.
Intratumoral injection of LL-37 elicits potent anti-tumor activity. 3×10^5 B16 tumor cells were inoculated into shaved flanks of C57BL/6 mice. Tumors were allowed to grow for 7 days. On day 7, tumors were either injected with a single dose of LL-37 (100 μg), injected daily for 3 consecutive days with LL-37 or injected with saline as a control. Tumor size was monitored with a caliper and volumes estimated using the formula π/6×length×width^2. The experiment was stopped 12 days after injection because all mice in the control group had died or their tumor had reached 20 mm in their maximal diameter. […] Thus, intratumoral LL-37 injection induces potent anti-tumor activity.

U937 = assay: Binding and protection of DNA released by dying tumor cells (electrophoresis of supernatants); format: cell-based, human; conditions: irradiated tumor cells, 24 h culture
Procedure: (a) U937 were UV-irradiated to induce apoptosis and cultured for 24 h, or rendered necrotic by repeated freeze/thaw cycles and stained with Annexin V and PI to visualize apoptosis and necrosis. (b) 5×10^6 live U937 cells (lines 1+2), or apoptotic UV-irradiated U937 (lines 3+4) were cultured for 24 h either alone or in the presence of LL-37 ([…]) before cell free supernatant was collected. U397 were also lyzed by freeze-thaw cycles to induce primary necrosis and cultured for 1 h either alone or in the presence of LL-37 ([…]) before cell free supernatant was collected. 20 ul of the supernatants in buffer were loaded onto 1% agarose gel and the electrophoresis was ran for 1.5 hrs at 100V. The image was acquired with a Biorad gel imaging system.
LL-37 combined with dying tumor cells can bind tumor-derived self-DNA in-vitro. To test the ability of LL-37 to bind and protect self-DNA released by dying tumor cells, we generated apoptotic and necrotic tumor cells in the presence or absence of LL-37, and measured DNA contents in culture supernatants by electrophoresis. Primary necrosis induced by consecutive freeze and thaw cycles, and apoptosis with secondary necrosis induced by γ-irradiation at 20,000 rad followed by a 24 h culture (at 5×10^6 cells in 500 μl) were confirmed by Annexin plus PI staining (FIG. 26a).

[2] = tested on: plasmacytoid dendritic cells (pDC); assay: IFN-α and cytokine production by purified human pDC (ELISA of supernatants); format: cell-based

LLGDFFRKSKEKIGKEFKRIVQRIKDFLRNLVPRTES [LL-37]
Induction of T cell mediated immunity (adjuvant activity) [1]: potent adjuvant activity | IFN-α2 mRNA expression in tumor compared to CpG-A (B16 tumors; 100 μg LL-37 vs 40 μg CpG-2216): more potent then the expression induced by CpG-A | IFN-α2 mRNA expression in healthy muscle tissue (B16 tumors; 100 μg injected, 6 h): not LL-37-injected healthy muscle tissue | IFN-α2 mRNA expression in B16 tumor (B16 tumors; 100 μg intratumoral): induced potent IFN-α2 mRNA expression; also recorded: IFN-α2 mRNA expression only in LL-37-injected tumors | Expression of pro-inflammatory and T-cell-derived cytokines in tumor (B16 tumors; 100 μg intratumoral, Flt-L treated mice, 6-72 h): induces expression of pro-inflammatory and T-cell-derived cytokines | Growth of established B16 tumor, single intratumoral injection (B16 tumor; 100 μg on day 7): significantly delayed the growth of established B16 tumor | Anti-tumor response, repeated intratumoral injection (B16 tumor; three consecutive days): showed a trend towards a better anti-tumor response | DNA detected in culture supernatants of dying tumor cells (U937): exclusively detected DNA in supernatants of irradiated tumor cells cultured with LL-37 | Clump formation of pDC [2]: induced pDC to form clumps | Maturation of pDC ([2]; not shown): did not induce maturation of pDC
